From publication PMC6266789 (Viruses, 2018)
Values joined by “and” are separate entries in the source; they are usually repeats but may differ in a detail not shown here. Equal values may be shown once. Read-outs that look alike come from different tables or passages of the source.

Legend:
rec A(H1N1)pdm09 [1] = details: mouse, in vivo
rec A(H1N1)pdm09 [2] = system: rec A(H1N1)pdm09; design: species or system C57BL/6 mice; details: mouse, in vivo
[3] = system: pH1N1 influenza virus recovered from lungs of IS mice; experiment: microbe, parasite or virus in culture; format: cell-based
rec A(H1N1)pdm09 [4] = system: rec A(H1N1)pdm09; design: species or system C57BL/6 mice; details: mouse, in vivo; remark: listed apart in the source
rec A(H1N1)pdm09 [5] = system: rec A(H1N1)pdm09; design: species or system C57BL/6 mice; details: mouse, in vivo; remark: listed apart in the source
influenza = system: influenza; design: method as in earlier work; details: infected IC young adults; cited from earlier work
[6] = system: NA of pH1N1 influenza virus recovered from lungs of IS mice; format: biochemical, influenza A(H1N1)pdm09; details: read-out: NAI Assay (Oseltamivir) Mean IC50

O=P1(N(CCCl)CCCl)NCCCO1 (stereo not drawn) [CP, cyclophosphamide]
development of antibodies (microneutralization) (rec A(H1N1)pdm09 [1]): none of them developed antibodies

NC(=O)c1nc(F)cnc1O [Favipiravir, 6-fluoro-3-hydroxy-2-pyrazinecarboxamide]
MDD (mean days of death) (rec A(H1N1)pdm09 [2]): 18
body weight losses over a 21-day period (rec A(H1N1)pdm09 [2]): reduced
decrease of mortality compared to the non-treated group (rec A(H1N1)pdm09 [2]): 50%
survival rate (rec A(H1N1)pdm09 [2]): 50%
MDD (mean days of death) (rec A(H1N1)pdm09 [2]; 20 mg/kg): 13 and 16.6
IC50 ([3]; read-out: PRA Assay (Favipiravir) IC50; virus from IS mice treated with oseltamivir 20 mg/kg + favipiravir 20 mg/kg BID, day 15; individual mice; Table 1): 14 µM
IC50 ([3]; unidentified influenza virus, in Mus musculus, 288 h, virus from not treated IS mice, day 12; individual mice; Table 1 (exp 2); read-out: PRA Assay (Favipiravir) IC50): 13.8 µM
IC50 ([3]; unidentified influenza virus, in Mus musculus, 360 h, virus from not treated IS mice, day 15; individual mice; Table 2 (exp 3); read-out: PRA Assay (Favipiravir) IC50): 11.5 µM
IC50 ([3]; virus from IS mice treated with favipiravir 20 mg/kg BID, day 15; individual mice; Table 1; read-out: PRA Assay (Favipiravir) IC50): 10.6 µM and 13 µM
IC50 ([3]; virus from IS mice treated with favipiravir 50 mg/kg BID, day 15; individual mice; Table 2; read-out: PRA Assay (Favipiravir) IC50): 12.4 µM
IC50 ([3]; virus from IS mice treated with oseltamivir 20 mg/kg + favipiravir 20 mg/kg BID, day 15; individual mice; Table 1; read-out: PRA Assay (Favipiravir) IC50): 13 µM
IC50 ([3]; virus from IS mice treated with oseltamivir 20 mg/kg + favipiravir 50 mg/kg BID, day 15; individual mice; Table 2; read-out: PRA Assay (Favipiravir) IC50): 11.6 µM and 10.4 µM and 9.5 µM
IC50 ([3]; virus from not treated IS mice, day 12; individual mice; Table 1 (exp 2); read-out: PRA Assay (Favipiravir) IC50): 10.5 µM and 9.5 µM and 9.9 µM
IC50 ([3]; virus from not treated IS mice, day 15; individual mice; Table 2 (exp 3); read-out: PRA Assay (Favipiravir) IC50): 8.5 µM
favipiravir susceptibility phenotype by PRA ([3]; viruses recovered on day 15 p.i., exp 3): did not show a resistant phenotype
LVTs vs non-treated and oseltamivir-treated mice (rec A(H1N1)pdm09 [4]): statistically lower

CCOC(=O)C1=C[C@@H](OC(CC)CC)[C@H](NC(C)=O)[C@@H](N)C1 [Oseltamivir, oseltamivir]
levels of IL-6, TNF-α and IFN-γ after treatment (rec A(H1N1)pdm09 [5]): not reduced
MDD (mean days of death) (rec A(H1N1)pdm09 [2]): 14.7
body weight losses over a 21-day period (rec A(H1N1)pdm09 [2]): reduced
survival rate (rec A(H1N1)pdm09 [2]): 50%
MDD (mean days of death) (rec A(H1N1)pdm09 [2]; 20 mg/kg): 13 and 16.6
nasal wash levels of IL-6, TNF-α and IFN-γ (influenza): reduced
IC50 [6]: 0.0006 µM and 0.0008 µM
